In assay [1] the test system is Candida albicans strain #40 fimbriae (enriched fimbriae EF, 66 kDa fimbrial subunit/adhesin protein). As to the kind of experiment: Thin-layer chromatography plate binding assay of fimbriae to glycosphingolipids. The note with it: 10 μg GSL per spot; 100 μg EF/ml; detected with mAb Fm16. As for the experimental part: Bound fimbriae on the TLC plates were visualized with a Protein G affinity-purified anti-C. albicans fimbriae monoclonal antibody, Fm16, obtained from ascites tumor in Balb/c mice as described below and a goat anti-mouse IgG alkaline phosphatase. […] (Lane 2).
The thin-layer chromatography (TLC) plate binding assay was performed as described by Baker et al. (1) with minor modifications. Aluminum-backed silica gel Si60 high performance TLC plates (Merck Kieselgel Si60, no fluorescence indicator, E. Merck, Darmstadt, Germany) were cut to produce 8×2.5 cm plates which were chromatographed with 100% methanol to the top of the plate to remove impurities and the plates were air dried. Glycosphingolipids (GSLs) (10 μg of each GSL) were loaded 1.0 cm above the base of the plate. The following glycosphingolipids purchased from Sigma Co. (St. Louis, Mo.) were used: mono-sialoganglioside (M-GM1), asialoganglioside GM1 (asialo-GM1), asialoganglioside GM2 (asialo-GM2), lactosylcerebroside (LCS), ceramide trihexoside (CTH). GSLs were separated on the TLC plates in chloroform-methanol-water (65:35:8, v/v/v) and air dried. One set of plates was sprayed with 10% sulphuric acid in ethanol and heated at 100°-150° C. for 5-10 min to char the GSLs for visual detection, and the other set was used for the fimbrial binding assay. The four corners of the plate were bent to 90° and the remainder of the assay was done with the TLC plates inverted in all solutions and at room temperature in an incubator shaker (model G25 Gyroshaker, New Brunswick Scientific, New Jersey, U.S.A.) at 20 rpm agitation. The TLC plate was blocked with 50 mM tris-hydroxy-methyl aminomethane pH 7.5 containing 150 mM NaCl (TBS), 0.25% (w/v) gelatin, 3% (w/v) BSA, 5 mM EDTA and 0.05% (v/v) Nonidet P40 in a glass petri dish for 2 hr at room temperature. The blocking solution was aspirated and 10 ml of EF (100 μg EF/ml in 100 mM TBS, pH 7.5) was then added. The fimbriae were allowed to bind to GSLs for 2 hours at room temperature. The plates were gently washed (2×5 min) with 10 ml of 100 mM TBS containing 0.1% (v/v) Tween 20 (TBST). The murine anti-EF monoclonal antibody, Fm16, was diluted 1:200 with TBST and 10 ml was added to the TLC plates. The solution was incubated for 1 hour at room temperature. Unbound antibodies were removed by washing the plates with 10 ml of TBST (2×5 min). The plate was then incubated with 10 ml of goat anti-mouse immunoglobulin G alkaline phosphatase conjugate (Jackson Laboratories) diluted 1:5,000 with TBST for 1 hour at room temperature. The plates were washed (2×5 min.) with 10 ml of TBST. The alkaline phosphatase activity was localized with Nitro Blue Tetrazolium chloride (NBT) and 5-bromo-4-chloro-3-indolyl phosphate (BCIP) dissolved in 100 mM Tris buffer, pH 9.5 containing 100 mM NaCl and 5 mM MgCl2. Color development was quenched by rinsing the TLC plate with deionized water and submerging the plate into a 150 mM EDTA solution pH 8.0 for 3-5 min. The plates were air dried, stored in plastic in the dark until they were photographed.

Assay [2] shares this test system. As to the kind of experiment: Inhibition of fimbriae binding to immobilized βGalNAc(1-4)βGal-BSA conjugate. The note with it: plates coated with 10 μg/ml conjugate; read-out: Half-maximal inhibition of fimbriae binding to βGalNAc(1-4)βGal-BSA conjugate. As for the experimental part:
Further experiments to determine the specificity of fimbrial binding to GSLs were carried out using a plate binding assay, as described above, but immobilizing on the plates a βGalNAc(1-4)βGal-BSA conjugate, synthesized from βGalNAc(1-4)βGal-O(CH2)8 COOCH3 (Sabesan and Lemieux), as described in Part B, above. The coupling ratio of disaccharide: BSA was 12:1. The protocol utilized for this assay was similar to that employed for the assessment of C. albicans fimbriae binding to GSLs except that the plates were coated with 100 μl/well of a 10 μg/ml solution of synthetic βGalNAc(1-4)βGal-BSA conjugate in 0.01M carbonate buffer, pH 9.5.
Using this assay, it was first determined that fimbriae bind to the βGalNAc(1-4)βGal-BSA conjugate in a saturable, concentration-dependent manner. FIGS. 12A and 12B show the results of experiments in which compounds were tested for ability to inhibit binding of fimbriae to the βGalNAc(1-4)βGal-BSA conjugate. The protocol used in this assay was similar to the one used in the GSL inhibition assay described above, except that the plates were coated with 100 μl/well of a 10 μg/ml solution of synthetic βGalNAc(1-4)βGal-BSA conjugate in 0.01M carbonate buffer, pH 9.5. As depicted in FIG. 12A, βGalNAc(1-4)βGal-methylester ("GalNAcGal") was able to inhibit binding to the GalNAcGal-BSA conjugate in a concentration dependent manner. […]

Assay [3] concerns Candida albicans fimbriae (binding to human BECs). As to the kind of experiment: Inhibition of fimbriae binding to human buccal epithelial cells (BECs). It is filed as cell-based. The note with it: fimbriae 50 μg preincubated with competitor 1 h at 37° C.; 2.0×10^5 BECs; competitor concentration not stated. The protocol: The percent inhibition is the inhibition of binding in the presence of the competing antigens with respect to binding observed in the absence of any competitors.
The fimbrial adherence assay was performed using a Manifold filtration apparatus equipped with individual vacuum stopcocks (Model FH 225V, Hoefer Scientific Instruments). Polycarbonate filters, 12 μm pore size (Nucleopore Costar Corp.), were pre-incubated overnight at 4° C. with 50 ml of PBS pH 7.2, containing 0.45% (v/v) Tween 20. The pretreated filters were placed into each chamber and washed with 2.5 ml of PBS. 1 ml containing 2.0×10^5 BECs in PBS was added to each chamber. Enriched fimbriae (100 μl/chamber, ranging from 0 to 80 μg fimbriae protein/ml) in PBS containing 0.05% (v/v) Tween-20 was added to each chamber and incubated with the BECs for 1.5 hours at room temperature. Unbound fimbriae were removed with washes of 2.5 ml of PBS. Mouse anti-C. albicans fimbriae monoclonal antibody (ascites fluid diluted 1:3000 with PBS) was added to the BECs (1.2 ml/chamber) and incubated for 1.5 hour at room temperature. BECs were washed five times with 2.5 ml of PBS. Goat anti-mouse IgG(H+L)-peroxidase conjugates (Jackson Laboratories) diluted 1:5000 with PBS was added (1.0 ml/chamber) and incubated for another hour at room temperature. The cells were then washed seven times with 2.5 ml/chamber of PBS. The polycarbonate filters containing BECs were removed from the filtration manifold and placed into glass scintillation vials. The horseradish peroxidase substrate solution (ABTS) was added to each vial (1 ml/vial) and incubated for 30 min at room temperature on a shaker at 100 rpm. The reaction was stopped by the addition of 4 mM sodium azide (200 μl/vial). The substrate solution was pipetted into Eppendorf tubes and centrifuged at 5,000 g for 3 minutes. Aliquots of the supernatants were pipetted into microtiter wells (200 μl/well) and the resulting absorbance at 405 nm was recorded with a Titertek Multiskan Plus microplate recorder. […]

The test system of assay [4] is Candida albicans (binding to human buccal epithelial cells). As to the kind of experiment: Inhibition of C. albicans whole cell binding to human BECs. It is filed as cell-based. The note with it: fungal cells exposed to increasing concentrations, then mixed with BECs. As for the experimental part:
Further experiments were carried out to determine the ability of βGalNAc(1-4)βGal-methylester ("GalNAcGal") to inhibit binding between whole BECs and Candida albicans.
C. albicans cells were radiolabelled as previously described by McEachran and Irvin (35, 48), incorporated herein by reference. A loopful of culture from Sabouraud-dextrose agar (GIBCO) was used as a source of inoculum for 10 ml of M9 medium supplemented with 0.4% (w/v) glucose. Cultures were incubated at 25° C. for 12 hours with 150 rpm agitation in G25 Gyrotory shaker (New Brunswick Scientific Co.). Cultures were supplemented with 5 μCi/ml of [^35 S]-L-methionine (New England Nuclear, Boston, Mass.) after 10 hours of incubation. […] The amount of [^35 S]-L-methionine incorporated by the C. albicans cells was determined by filtering 1.0 ml of a 1:100 dilution of washed C. albicans culture through a 0.2 μm polycarbonate filter (Nucleopore Corp., Pleasanton, Calif.) in triplicate, washing with 15 ml of PBS, and placing the filter in scintillation vials with 5.0 ml of Aquasol (New England Nuclear, Massachusettes). The counts per minute were determined with a Beckman LS-150 liquid-scintillation counter. […]
In a similar manner, experiments were carried out testing the ability of βGalNac(1-4)βGal to inhibit binding of C. albicans to BECs. […] Total cell counts were determined using a hemocytometer. […]

The record followed here is patent US5641760A, “Method of treating candida infection” (Pence, Inc., priority 1994, dated 1997).

pIC50: −log10 of the molar value.

With mono-sialoganglioside [GM1], in assay [1], the “Binding of C. albicans fimbriae to glycosphingolipid on TLC plate” value (shortened to “Binding of C. albicans fimbriae”) is recorded as “failed to bind”. On to `COC(=O)CCCCCCCCO[C@@H]1O[C@H](CO)[C@H](O[C@@H]2O[C@H](CO)[C@H](O)[C@H](O)[C@H]2NC(C)=O)[C@H](O)[C@H]1O` [βGalNAc(1-4)βGal-methylester], for which the pIC50 in assay [2] is 5.09. Also, the “Inhibition of C. albicans fimbriae binding to BECs” value in assay [3] stood at 70%. The “Inhibition of binding between whole BECs and Candida albicans” value in assay [4] is “inhibited the fungal cell-BEC interaction in a concentration dependent manner”.

For lactosyl cerebroside [LCS], the “Binding of C. albicans fimbriae” value in assay [1] was “failed to bind”.

“gangliotriosylceramide: βGalNAc(1-4)βGal(1-4)βGlc(1-1)Cer [asialo-GM2]”: in assay [1], the “Binding of C. albicans fimbriae” value is listed as “bind specifically”.
